Measurements from patent US20240285571A1, “METHODS OF TREATING BONE INFECTIONS” (MICROBION CORPORATION, priority 2020, published 2024).
≈ marks a conversion by molar mass, not a printed value. Read-outs that look alike come from different tables or passages of the source.

Tests used:
M. abscessus (MABSC) = experiment: MIC against CF isolates (Example 7, Table 18); assay type: cell-based, Mycobacterium abscessus complex; settings: Mycobacteroides abscessus
S. aureus ATCC 29213 = settings: per CLSI M100-S24 or provided by Microbion; cited from earlier work
E. faecium = experiment: Broth microdilution MIC (Example 5); assay type: cell-based; settings: E. faecium MMX 485; VRE vanA
Procedure: (§1) Test and Comparator Agents: The test agents were stored at room temperature until assayed. […] The stock solutions were allowed to stand for at least 1 hr prior to use to auto-sterilize.
(§2) TestMedia: Test media were prepared and stored in accordance with guidelines from CLSI (4, 6, 7).
(§3) Broth Microdilution MC Testing (Aerobic Bacteria and Yeast): The broth microdilution assay method employed for the susceptibility testing of aerobic bacteria (excluding N. gonorrhoeae which was evaluated by agar dilution) and yeast essentially followed the procedures described by CLSI (3, 4, 7, 8) and employed automated liquid handlers to conduct serial dilutions and liquid transfers. […] These would become the ‘mother plates’ from which ‘daughter’ or test plates would be prepared. The drugs (300 μL at 40× the desired top concentration in the test plates) were dispensed into the appropriate well in Column 1 of the mother plates. The Biomek 2000 was used to make serial two-fold dilutions through Column 11 in the “mother plate”. The wells of Column 12 contained no drug and ultimately served as the organism growth control wells.
(§4) The daughter plates were prepared using the Biomek FX which transferred 5 μL of drug solution from each well of a mother plate to the corresponding well of the correct daughter plate in a single step.
(§5) A standardized inoculum of each organism was prepared per CLSI methods (3, 7). Isolated colonies of each test isolate were picked from the primary plate and a suspension was prepared to equal a 0.5 McFarland turbidity standard. Standardized suspensions were then diluted […] (1:100 for yeast, 1:20 for bacteria). After dilution, the inoculum suspensions were then transferred to compartments of sterile reservoirs divided by length (Beckman Coulter), and the Biomek 2000 was used to inoculate all plates. Daughter plates were placed on the Biomek 2000 in reverse orientation so that plates were inoculated from low to high drug concentration.
(§6) The Biomek 2000 delivered 10 μL of standardized inoculum into each well of the appropriate daughter plate for an additional 1:20 dilution.
(§7) Plates were stacked 4 high, covered with a lid on the top plate, placed into plastic bags, and incubated at 35° C. for approximately 24-48 hr for all yeast isolates and 16-24 hr for aerobic bacteria. Plates were viewed from the bottom using a plate viewer. […] MIC endpoints for the test agents and control compounds were read per CLSI criteria (3, 7).

B. fragilis = experiment: Agar dilution MIC, anaerobes (Example 5); assay type: cell-based; settings: Bacteroides fragilis, ATCC25285; B. fragilis MMX 123 (ATCC 25285); QC; read-out: MIC
C. difficile = experiment: Agar dilution MIC, anaerobes (Example 5); assay type: cell-based, Clostridium difficile; settings: Clostridioides difficile, read-out: MIC
S. pneumoniae [1] = settings: S. pneumoniae MMX 6837 (ATCC 49619); cited from earlier work
Actinomyces turicensis = experiment: MIC of baseline clinical isolates (Example 8); assay type: cell-based; settings: Actinomyces turicensis baseline isolates (N′ = 1), central laboratory, mITT
Procedure: (§8) Microbiology was assessed on Day 1 and at the time of any subsequent surgical procedure at the index site. Samples were collected from the infected bone site or involved tissue adjacent to any implant(s), swabs of the deep infection site, and the superficial tissue/wound closure/sinus tract site. […] Parallel sets of samples were analyzed by the local clinical site laboratory to guide patient antibiotic treatment.

Anaerococcus murdochii = experiment: MIC of baseline clinical isolates (Example 8); assay type: cell-based; settings: Anaerococcus murdochii baseline isolates (N′ = 1), central laboratory, mITT
Procedure: as §8

Clostridium sphenoides = experiment: MIC of baseline clinical isolates (Example 8); assay type: cell-based; settings: Clostridium sphenoides baseline isolates (N′ = 1), central laboratory, mITT
Procedure: as §8

[2] = test system: Cutibacterium [Propionibacterium] acnes; experiment: MIC of baseline clinical isolates (Example 8); assay type: cell-based; settings: Cutibacterium (Proprionibacterium) acnes baseline isolates (N′ = 3), central laboratory, mITT
Procedure: as §8

F. magna = experiment: MIC of baseline clinical isolates (Example 8); assay type: cell-based; settings: Finegoldia magna baseline isolates (N′ = 4), central laboratory, mITT
Procedure: as §8

Peptoniphilus gorbachii = experiment: MIC of baseline clinical isolates (Example 8); assay type: cell-based; settings: Peptoniphilus gorbachii baseline isolates (N′ = 1), central laboratory, mITT
Procedure: as §8

[3] = test system: non-speciated Anaerococcus; experiment: MIC of baseline clinical isolates (Example 8); assay type: cell-based; settings: Anaerococcus non-speciated baseline isolates (N′ = 1), central laboratory, mITT
Procedure: as §8

[4] = test system: Corynebacterium amycolatum; experiment: MIC of baseline clinical isolates (Example 8); assay type: cell-based; settings: Corynebacterium amycolatum baseline isolates (N′ = 1), central laboratory, mITT
Procedure: (§9) Microbiology was assessed on Day 1 and at the time of any subsequent surgical procedure at the index site. Samples were collected from the infected bone site or involved tissue adjacent to any implant(s), swabs of the deep infection site, and the superficial tissue/wound closure/sinus tract site. Isolation and identification of aerobic and anerobic bacteria was conducted at a central microbiology laboratory (IHMA, Schaumburg, IL) and susceptibility of the isolates to MBN-101 (BisEDT) and comparator agents was performed per Clinical and Laboratory Standards Institute (CLSI). Parallel sets of samples were analyzed by the local clinical site laboratory to guide patient antibiotic treatment.

Corynebacterium jeikeium = experiment: MIC of baseline clinical isolates (Example 8); assay type: cell-based; settings: Corynebacterium jeikeium baseline isolates (N′ = 2), central laboratory, mITT
Procedure: as §9

[5] = test system: Corynebacterium resistens; experiment: MIC of baseline clinical isolates (Example 8); assay type: cell-based; settings: Corynebacterium resistens baseline isolates (N′ = 1), central laboratory, mITT
Procedure: as §9

Dermabacter hominis = experiment: MIC of baseline clinical isolates (Example 8); assay type: cell-based; settings: Dermabacter hominis baseline isolates (N′ = 1), central laboratory, mITT
Procedure: as §9

Streptococcus oralis = experiment: MIC of baseline clinical isolates (Example 8); assay type: cell-based; settings: Streptococcus oralis baseline isolates (N′ = 1), central laboratory, mITT
Procedure: as §9

[6] = test system: non-speciated Corynebacterium; experiment: MIC of baseline clinical isolates (Example 8); assay type: cell-based; settings: Corynebacterium non-speciated baseline isolates (N′ = 2), central laboratory, mITT
Procedure: as §9

S. agalactiae = experiment: Broth microdilution MIC (Example 5); assay type: cell-based
Procedure: as §1, §2, §3, §4, §5, §6, §7

S. pneumoniae [7] = experiment: Broth microdilution MIC (Example 5); assay type: cell-based
Procedure: as §1, §2, §3, §4, §5, §6, §7

S. pyogenes = experiment: Broth microdilution MIC (Example 5); assay type: cell-based
Procedure: as §1, §2, §3, §4, §5, §6, §7

Question: For `CC[C@H]1OC(=O)[C@H](C)[C@@H](O[C@H]2C[C@@](C)(OC)[C@@H](O)[C@H](C)O2)[C@H](C)[C@@H](O[C@@H]2O[C@H](C)C[C@H](N(C)C)[C@H]2O)[C@](C)(OC)C[C@@H](C)C(=O)[C@H](C)[C@@H](O)[C@]1(C)O` [Clarithromycin, reference compound], which MIC (M. abscessus (MABSC); strain AMT0068-40, M abscessus/massiliense complex) is on record?
Answer: Its MIC is 1 µg/mL (≈ 1.34 µM).

Question: What about the MIC (M. abscessus (MABSC); strain AMT0119-7, M abscessus/massiliense complex) of the same compound?
Answer: Its MIC is 1 µg/mL (≈ 1.34 µM).

Question: What about the “MIC, acceptable range” value (S. aureus ATCC 29213) of the same compound?
Answer: Its value is 0.12 to 0.5 µg/mL.

Question: And the “MIC, expected results” value (S. aureus ATCC 29213)?
Answer: Its value is 0.25 µg/mL (≈ 0.334 µM).

Question: What does the source list for `CCC[C@@H]1C[C@@H](C(=O)N[C@@H]([C@H]2O[C@H](SC)[C@H](O)[C@@H](O)[C@H]2O)[C@H](C)Cl)N(C)C1` [Clindamycin]?
Answer: MIC (E. faecium): >32 µg/mL; MIC (B. fragilis): 1 µg/mL (≈ 2.35 µM); MIC (C. difficile; ATCC700057, C. difficile MMX 4381 (ATCC 700057), QC, CCI): 4 µg/mL (≈ 9.41 µM); MIC (C. difficile; C. difficile MMX 8272, ribotype 255, CCI): 4 µg/mL (≈ 9.41 µM); MIC (C. difficile; C. difficile MMX 8279, ribotype 005, CCR): > 64 µg/mL; MIC (C. difficile; C. difficile MMX 8281, ribotype 010, CCR): > 64 µg/mL; MIC (C. difficile; NCTC13307, C. difficile MMX 5681 (NCTC 13307), ribotype 012, CCR): > 64 µg/mL; MIC (C. difficile; NCTC13336, C. difficile MMX 5680 (NCTC 13336), ribotype 027, CCI METR): 4 µg/mL (≈ 9.41 µM)

Question: Which MIC (E. faecium) does the source give for `CC[C@H]1OC(=O)[C@H](C)[C@@H](O[C@H]2C[C@@](C)(OC)[C@@H](O)[C@H](C)O2)[C@H](C)[C@@H](O[C@@H]2O[C@H](C)C[C@H](N(C)C)[C@H]2O)[C@](C)(O)C[C@@H](C)C(=O)[C@H](C)[C@@H](O)[C@]1(C)O` [Erythromycin] here?
Answer: Its MIC is >64 µg/mL.

Question: What about the “CLSI QC range of MIC” value (S. pneumoniae [1]) of the same compound?
Answer: The value was “(0.03-0.12) μg/mL”.

Question: Which “Mean MIC” value (Actinomyces turicensis) does the source give for `CCN1CCN(C(=O)N[C@@H](C(=O)N[C@@H]2C(=O)N3[C@@H]2SC(C)(C)[C@@H]3C(=O)O)c2ccccc2)C(=O)C1=O.C[C@]1(Cn2ccnn2)[C@H](C(=O)O)N2C(=O)C[C@H]2S1(=O)=O` [TZP] here?
Answer: Its value is 1.00 µg/mL.

Question: What about the “n (% resistant)” value (Actinomyces turicensis) of the same compound?
Answer: The value was 0 (0.0) n (%).

Question: What about the “Mean MIC” value (Anaerococcus murdochii) of the same compound?
Answer: The value was 0.50 µg/mL.

Question: And the “n (% resistant)” value (Anaerococcus murdochii)?
Answer: Its value is 0 (0.0) n (%).

Question: And the “Mean MIC” value (Clostridium sphenoides)?
Answer: Its value is 16.00 µg/mL.

Question: And the “n (% resistant)” value (Clostridium sphenoides)?
Answer: The value was 0 (0.0) n (%).

Question: What about the “Mean MIC” value [2] of the same compound?
Answer: The value was 0.29 µg/mL.

Question: And the “n (% resistant)” value [2]?
Answer: The value was 0 (0.0) n (%).

Question: And the “Mean MIC” value (F. magna)?
Answer: Its value is 0.34 µg/mL.

Question: What about the “n (% resistant)” value (F. magna) of the same compound?
Answer: Its value is 0 (0.0) n (%).

Question: What about the “Mean MIC” value (Peptoniphilus gorbachii) of the same compound?
Answer: The value was 0.03 µg/mL.

Question: And the “n (% resistant)” value (Peptoniphilus gorbachii)?
Answer: The value was 0 (0.0) n (%).

Question: And the “n (% resistant)” value [3]?
Answer: The value was 0 (0.0) n (%).

Question: And the “Mean MIC” value [4]?
Answer: Its value is 1.00 µg/mL.

Question: And the “n (% resistant)” value [4]?
Answer: The value was 0 (0.0) n (%).

Question: And the “Mean MIC” value (Corynebacterium jeikeium)?
Answer: The value was 1.00 µg/mL.

Question: What about the “n (% resistant)” value (Corynebacterium jeikeium) of the same compound?
Answer: Its value is 0 (0.0) n (%).

Question: And the “Mean MIC” value [5]?
Answer: The value was 1.00 µg/mL.

Question: And the “n (% resistant)” value [5]?
Answer: Its value is 0 (0.0) n (%).

Question: And the “Mean MIC” value (Dermabacter hominis)?
Answer: Its value is 0.50 µg/mL.

Question: What about the “n (% resistant)” value (Dermabacter hominis) of the same compound?
Answer: Its value is 0 (0.0) n (%).

Question: What about the “Mean MIC” value (Streptococcus oralis) of the same compound?
Answer: Its value is 0.06 µg/mL.

Question: What about the “n (% resistant)” value (Streptococcus oralis) of the same compound?
Answer: The value was 0 (0.0) n (%).

Question: And the “Mean MIC” value [6]?
Answer: The value was 1.00 µg/mL.

Question: What about the “n (% resistant)” value [6] of the same compound?
Answer: Its value is 0 (0.0) n (%).

Question: Which results are given for Penicillin?
Answer: MIC (S. agalactiae; S. agalactiae MMX 3741, ERYR CCR): 0.03 µg/mL; MIC (S. agalactiae; S. agalactiae MMX 3743, ERYR CCR): 0.06 µg/mL; MIC (S. agalactiae; S. agalactiae MMX 4077, ERYR CCR): 0.06 µg/mL; MIC (S. agalactiae; S. agalactiae MMX 4079, ERYR CCR PenR MEMR): 2 µg/mL; MIC (S. agalactiae; S. agalactiae MMX 4086, ERYR CCR): 0.06 µg/mL; MIC (S. pneumoniae [7]; S. pneumoniae MMX 880, LevR SXTR CCR EryR PenR): 2 µg/mL; MIC (S. pneumoniae [7]; S. pneumoniae MMX 937, MemR SXTR CCR EryR PenR): 4 µg/mL; MIC (S. pneumoniae [7]; S. pneumoniae MMX 3959, CCR EryR): 0.12 µg/mL; MIC (S. pneumoniae [7]; S. pneumoniae MMX 5440, MemR SXTR CCR EryR PenR): 4 µg/mL; MIC (S. pneumoniae [7]; S. pneumoniae MMX 5445, MemR SXTR CCR EryR PenR): 4 µg/mL; MIC (S. pneumoniae [7]; S. pneumoniae MMX 6837 (ATCC 49619), QC): 0.25 µg/mL; MIC (S. pneumoniae [7]; S. pneumoniae MMX 8133, MemR SXTR CCR EryR PenR): 4 µg/mL; MIC (S. pyogenes; S. pyogenes MMX 3068, EryR): ≤0.008 µg/mL; MIC (S. pyogenes; S. pyogenes MMX 3820, ERYR CLIR): ≤0.008 µg/mL; MIC (S. pyogenes; S. pyogenes MMX 3919, ERYR): ≤0.008 µg/mL; MIC (S. pyogenes; S. pyogenes MMX 3929, ERYR CCR): ≤0.008 µg/mL; MIC (S. pyogenes; S. pyogenes MMX 5091, ERYR CCR): ≤0.008 µg/mL; CLSI QC range of MIC (S. pneumoniae [1]): (0.25-1) μg/mL
